According to the NIST ThermoML archive (doi:10.1021/je201334p):
± gives the expanded uncertainty stated by the source.

Assays:
[1] = refractive index (Na D-line) (dimensionless); xn = mol fraction of the nth substance listed; conditions: 101 kPa, Liquid, Standard Abbe refractometry
[2] = xn = mol fraction of the nth substance listed; conditions: 101 kPa, Liquid; for speed of sound: Sing-around technique in a fixed-path interferometer; for mass density: Vibrating tube method

CCCCCCn1cc[n+](C)c1.N#CN=C=[N-] [1-hexyl-3-methylimidazolium dicyanamide] + O
Conditions	mass density, 288.15 K [kg/m3]	mass density, 298.15 K [kg/m3]	mass density, 308.15 K [kg/m3]	refractive index, 288.15 K	refractive index, 298.15 K	refractive index, 308.15 K	speed of sound, 288.15 K [m/s]	speed of sound, 298.15 K [m/s]	speed of sound, 308.15 K [m/s]
[1], x2 = 0	–	–	–	1.50729 ± 0.00079	1.50415 ± 0.00079	1.501 ± 0.00079	–	–	–
[1], x2 = 0.0785	–	–	–	1.50599 ± 0.00075	1.50284 ± 0.00075	1.49962 ± 0.00076	–	–	–
[1], x2 = 0.1191	–	–	–	1.50525 ± 0.00073	1.5021 ± 0.00074	1.49894 ± 0.00074	–	–	–
[1], x2 = 0.2124	–	–	–	1.50333 ± 0.00069	1.50016 ± 0.0007	1.49698 ± 0.00071	–	–	–
[1], x2 = 0.3055	–	–	–	1.50096 ± 0.00065	1.4978 ± 0.00066	1.49462 ± 0.00068	–	–	–
[1], x2 = 0.4019	–	–	–	1.49784 ± 0.00061	1.49467 ± 0.00063	1.49131 ± 0.00065	–	–	–
[1], x2 = 0.5096	–	–	–	1.49312 ± 0.00057	1.48997 ± 0.00059	1.48679 ± 0.00063	–	–	–
[1], x2 = 0.6069	–	–	–	1.48721 ± 0.00051	1.48405 ± 0.00057	1.48083 ± 0.00064	–	–	–
[1], x2 = 0.7123	–	–	–	1.47716 ± 0.00046	1.474 ± 0.00055	1.47076 ± 0.00069	–	–	–
[1], x2 = 0.8067	–	–	–	1.46233 ± 0.00047	1.45924 ± 0.00053	1.4559 ± 0.00091	–	–	–
[1], x2 = 0.9031	–	–	–	1.43179 ± 0.00056	1.42902 ± 0.00049	1.42645 ± 0.001	–	–	–
[1], x2 = 0.9499	–	–	–	1.40179 ± 0.001	1.39945 ± 0.00048	1.39679 ± 0.0014	–	–	–
[2], x2 = 0	1034.76 ± 2.6	1028.56 ± 2.6	1022.4 ± 2.5	–	–	–	1713.4 ± 3.2	1687.7 ± 3.2	1662.7 ± 3.2
[2], x2 = 0.0785	1034.48 ± 2.2	1028.25 ± 2.2	1022.07 ± 2.2	–	–	–	1713.4 ± 3	1688.1 ± 3	1663.1 ± 3
[2], x2 = 0.1191	1034.31 ± 2	1028.07 ± 2	1021.88 ± 2	–	–	–	1713.8 ± 2.9	1688.3 ± 2.9	1663.3 ± 2.9
[2], x2 = 0.2124	1033.88 ± 1.6	1027.61 ± 1.6	1021.38 ± 1.6	–	–	–	1714.3 ± 2.6	1688.9 ± 2.6	1664 ± 2.6
[2], x2 = 0.3055	1033.38 ± 1.3	1027.08 ± 1.3	1020.81 ± 1.3	–	–	–	1715 ± 2.4	1689.7 ± 2.4	1664.8 ± 2.4
[2], x2 = 0.4019	1032.76 ± 0.99	1026.41 ± 0.97	1020.08 ± 0.96	–	–	–	1715.8 ± 2.1	1690.6 ± 2.1	1665.8 ± 2.1
[2], x2 = 0.5096	1031.9 ± 0.69	1025.46 ± 0.68	1019.04 ± 0.67	–	–	–	1717 ± 1.9	1692.1 ± 1.9	1667.6 ± 1.9
[2], x2 = 0.6069	1030.86 ± 0.48	1024.31 ± 0.47	1017.78 ± 0.46	–	–	–	1717.9 ± 1.6	1693.4 ± 1.6	1668.9 ± 1.6
[2], x2 = 0.7123	1029.08 ± 0.29	1022.4 ± 0.29	1015.71 ± 0.28	–	–	–	1717.1 ± 1.4	1693.2 ± 1.4	1669.1 ± 1.4
[2], x2 = 0.8067	1026.34 ± 0.17	1019.6 ± 0.17	1012.81 ± 0.16	–	–	–	1709.4 ± 1.3	1687.6 ± 1.3	1665.3 ± 1.3
[2], x2 = 0.9031	1020.46 ± 0.09	1014.13 ± 0.09	1007.62 ± 0.09	–	–	–	1672 ± 1.1	1659.1 ± 1.1	1644.5 ± 1.1
[2], x2 = 0.9499	1014.51 ± 0.06	1009.12 ± 0.07	1003.34 ± 0.07	–	–	–	1618.9 ± 1.1	1618.6 ± 1	1614.6 ± 1.1

COS(=O)(=O)[O-].C[n+]1ccccc1 [1-methylpyridinium methylsulfate] + O
Conditions	mass density, 288.15 K [kg/m3]	mass density, 298.15 K [kg/m3]	mass density, 308.15 K [kg/m3]	refractive index, 288.15 K	refractive index, 298.15 K	refractive index, 308.15 K	speed of sound, 288.15 K [m/s]	speed of sound, 298.15 K [m/s]	speed of sound, 308.15 K [m/s]
[1], x2 = 0	–	–	–	1.51603 ± 0.00052	1.5134 ± 0.00052	1.51077 ± 0.00052	–	–	–
[1], x2 = 0.0574	–	–	–	1.51462 ± 0.00051	1.51199 ± 0.00051	1.50937 ± 0.00052	–	–	–
[1], x2 = 0.073	–	–	–	1.51423 ± 0.00051	1.51159 ± 0.00051	1.50895 ± 0.00051	–	–	–
[1], x2 = 0.1111	–	–	–	1.51315 ± 0.00051	1.51052 ± 0.00051	1.50794 ± 0.00051	–	–	–
[1], x2 = 0.1927	–	–	–	1.51059 ± 0.00049	1.50803 ± 0.0005	1.50539 ± 0.00052	–	–	–
[1], x2 = 0.2941	–	–	–	1.50679 ± 0.00048	1.50426 ± 0.0005	1.5017 ± 0.00052	–	–	–
[1], x2 = 0.4005	–	–	–	1.50177 ± 0.00047	1.49921 ± 0.00049	1.49665 ± 0.00052	–	–	–
[1], x2 = 0.4996	–	–	–	1.49567 ± 0.00045	1.49314 ± 0.00049	1.49057 ± 0.00054	–	–	–
[1], x2 = 0.6077	–	–	–	1.48632 ± 0.00043	1.48384 ± 0.00048	1.48134 ± 0.00057	–	–	–
[1], x2 = 0.7064	–	–	–	1.47388 ± 0.00041	1.47142 ± 0.00048	1.46886 ± 0.00065	–	–	–
[1], x2 = 0.8058	–	–	–	1.45378 ± 0.0005	1.45141 ± 0.00047	1.44897 ± 0.00087	–	–	–
[1], x2 = 0.901	–	–	–	1.41884 ± 0.00053	1.4167 ± 0.00046	1.41447 ± 0.00087	–	–	–
[1], x2 = 0.9497	–	–	–	1.38778 ± 0.0004	1.38593 ± 0.00045	1.38397 ± 0.00053	–	–	–
[1], x2 = 0.9645	–	–	–	1.37506 ± 0.0004	1.37336 ± 0.00044	1.37158 ± 0.00055	–	–	–
[2], x2 = 0	1352.86 ± 0.69	1346.12 ± 0.68	1339.37 ± 0.67	–	–	–	1901.1 ± 1.5	1875.8 ± 1.5	1852.4 ± 1.5
[2], x2 = 0.0574	1350.36 ± 0.64	1343.61 ± 0.63	1336.86 ± 0.62	–	–	–	1900.5 ± 1.5	1876 ± 1.5	1852.3 ± 1.5
[2], x2 = 0.073	1349.61 ± 0.62	1342.85 ± 0.61	1336.11 ± 0.61	–	–	–	1901.4 ± 1.5	1876.4 ± 1.5	1852.7 ± 1.5
[2], x2 = 0.1111	1347.74 ± 0.59	1340.98 ± 0.58	1334.23 ± 0.58	–	–	–	1901.9 ± 1.5	1877.4 ± 1.5	1853.7 ± 1.5
[2], x2 = 0.1927	1343.32 ± 0.53	1336.56 ± 0.52	1329.82 ± 0.51	–	–	–	1903.2 ± 1.4	1879.2 ± 1.4	1855.8 ± 1.4
[2], x2 = 0.2941	1336.61 ± 0.46	1329.85 ± 0.45	1323.12 ± 0.45	–	–	–	1906.5 ± 1.4	1882.6 ± 1.4	1859.2 ± 1.4
[2], x2 = 0.4005	1327.54 ± 0.39	1320.8 ± 0.39	1314.09 ± 0.38	–	–	–	1909.5 ± 1.3	1886.2 ± 1.3	1863.4 ± 1.3
[2], x2 = 0.4996	1316.5 ± 0.34	1309.79 ± 0.34	1303.09 ± 0.33	–	–	–	1912.2 ± 1.3	1889.5 ± 1.3	1867 ± 1.3
[2], x2 = 0.6077	1299.41 ± 0.29	1292.74 ± 0.29	1286.07 ± 0.28	–	–	–	1913.2 ± 1.3	1891 ± 1.3	1868.9 ± 1.2
[2], x2 = 0.7064	1276.09 ± 0.25	1269.51 ± 0.25	1262.91 ± 0.25	–	–	–	1906.8 ± 1.2	1885.4 ± 1.2	1863.4 ± 1.2
[2], x2 = 0.8058	1237.51 ± 0.22	1231.17 ± 0.22	1224.76 ± 0.22	–	–	–	1878 ± 1.2	1859.2 ± 1.2	1837.7 ± 1.2
[2], x2 = 0.901	1168.89 ± 0.16	1163.31 ± 0.16	1157.51 ± 0.17	–	–	–	1782.3 ± 1.1	1772.7 ± 1.1	1760.4 ± 1.2
[2], x2 = 0.9497	1107.24 ± 0.12	1102.67 ± 0.12	1097.68 ± 0.12	–	–	–	1670.4 ± 1.1	1673.5 ± 1.1	1673.4 ± 1.1
[2], x2 = 0.9645	1081.91 ± 0.12	1077.85 ± 0.12	1073.27 ± 0.12	–	–	–	1622.5 ± 1	1633.3 ± 1	1637.2 ± 1
